Measurements taken from PubChem BioAssay (NCI).
Where “and” joins values, the source holds several entries; their conditions need not be identical. Identical values can stand only once.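 Where inhibition never reached the appropriate level, the endpoint shown equals the highest concentration tested. Otherwise, values were interpolated linearly from a five-concentration, 48-hour dose response in 96-well plates. GI50 marks 50% less growth. At the TGI there is no net growth.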

How the values were obtained:
Assay in all cases: NCI tumour cell line growth inhibition, 48 h
[1] = system: 786-0 renal
[2] = system: A549 NSCLC
[3] = system: ACHN renal
[4] = system: CAKI-1 renal
[5] = system: CCRF-CEM leukemia
[6] = system: DLD-1 colon
[7] = system: DMS 114 small cell lung
[8] = system: EKVX NSCLC
[9] = system: HCC-2998 colon
[10] = system: HCT-116 colon
[11] = system: HL-60(TB) leukemia
[12] = system: HOP-18 NSCLC
[13] = system: HOP-62 NSCLC
[14] = system: HOP-92 NSCLC
[15] = system: HT29 colon
[16] = system: IGROV1 ovarian
[17] = system: K-562 leukemia
[18] = system: KM12 colon
[19] = system: KM20L2 colon
[20] = system: LOX IMVI melanoma
[21] = system: LXFL 529 NSCLC
[22] = system: M14 melanoma
[23] = system: M19-MEL melanoma
[24] = system: MALME-3M melanoma
[25] = system: MOLT-4 leukemia
[26] = system: NCI-H226 lung
[27] = system: NCI-H23 lung
[28] = system: NCI-H460 lung
[29] = system: NCI-H522 lung
[30] = system: OVCAR-3 ovarian
[31] = system: OVCAR-4 ovarian
[32] = system: OVCAR-5 ovarian
[33] = system: OVCAR-8 ovarian
[34] = system: RPMI-8226 leukemia
[35] = system: RXF 393 renal
[36] = system: RXF-631 renal
[37] = system: SF-268 CNS
[38] = system: SF-295 CNS
[39] = system: SF-539 CNS
[40] = system: SK-MEL-2 melanoma
[41] = system: SK-MEL-28 melanoma
[42] = system: SK-MEL-5 melanoma
[43] = system: SK-OV-3 ovarian
[44] = system: SN12C renal
[45] = system: SNB-19 CNS
[46] = system: SNB-78 CNS
[47] = system: SR leukemia
[48] = system: SW-620 colon
[49] = system: TK-10 renal
[50] = system: U251 CNS
[51] = system: UACC-257 melanoma
[52] = system: UACC-62 melanoma
[53] = system: UO-31 renal
[54] = system: XF 498 CNS
[55] = system: A498 renal
[56] = system: BT-549 breast
[57] = system: COLO 205 colon
[58] = system: DMS 273 small cell lung
[59] = system: DU-145 prostate
[60] = system: HCT-15 colon
[61] = system: MCF7 breast
[62] = system: MDA-MB-435
[63] = system: MDA-N
[64] = system: NCI/ADR-RES ovarian
[65] = system: P388 leukemia
[66] = system: P388/ADR leukemia
[67] = system: PC-3 prostate
[68] = system: SN12K1 renal
[69] = system: SNB-75 CNS
[70] = system: T-47D breast

`CCOC(=O)C(=O)Nc1c(C)cccc1CC` gave a TGI [1] of over 100 µM, a TGI [2] of over 100 µM and a TGI [3] of over 100 µM. For the same compound, the TGI [4] was over 100 µM, the TGI [5] was over 100 µM and the TGI [6] was over 100 µM. It also gave a TGI [7] of over 100000 nM, a TGI [8] of over 100 µM and a TGI [9] of over 100 µM. The TGI [10] was over 100 µM, the TGI [11] was over 100 µM and the TGI [12] was over 100 µM. For the same compound, the TGI [13] was over 100000 nM, the TGI [14] was over 100 µM and the TGI [15] was over 100 µM. For the same compound, the TGI [16] was over 100 µM, the TGI [17] was over 100 µM and the TGI [18] was over 100 µM. The TGI [19] was over 100 µM, the TGI [20] was over 100 µM and the TGI [21] was over 100 µM. The TGI [22] was over 100 µM, the TGI [23] was over 100 µM and the TGI [24] was over 100 µM. It also gave a TGI [25] of over 100 µM, a TGI [26] of over 100000 nM and a TGI [27] of over 100 µM. For the same compound, the TGI [28] was over 100 µM, the TGI [29] was over 100 µM and the TGI [30] was over 100 µM. The TGI [31] was over 100 µM, the TGI [32] was over 100 µM and the TGI [33] was over 100 µM. The TGI [34] was over 100 µM, the TGI [35] was over 100 µM and the TGI [36] was over 100 µM. It also gave a TGI [37] of over 100000 nM, a TGI [38] of over 100000 nM and a TGI [39] of over 100000 nM. It also gave a TGI [40] of over 100 µM, a TGI [41] of over 100 µM and a TGI [42] of over 100 µM. It also gave a TGI [43] of over 100 µM, a TGI [44] of over 100000 nM and a TGI [45] of over 100000 nM. It also gave a TGI [46] of over 100 µM, a TGI [47] of over 100 µM and a TGI [48] of over 100 µM. For the same compound, the TGI [49] was over 100 µM, the TGI [50] was over 100000 nM and the TGI [51] was over 100 µM. It also gave a TGI [52] of over 100 µM, a TGI [53] of over 100 µM and a TGI [54] of over 100 µM.

`Cc1c2cc[n+](C)cc2c(C)c2c1[nH]c1ccccc12` was tested, and the TGI [55] was 68.7 µM and 53.5 µM, the TGI [2] was 5.55 µM and 8.83 µM and the TGI [3] was over 100 µM. For the same compound, the TGI [56] was 8.07 µM, the TGI [4] was 58.8 µM and 27.7 µM and the TGI [5] was 41.9 µM and 35.3 µM. For the same compound, the TGI [57] was 4.57 µM and 3.37 µM, the TGI [6] was > 100 µM and 76.9 µM and the TGI [7] was 1880 nM and 1990 nM. For the same compound, the TGI [58] was 12.3 µM and 14.2 µM, the TGI [59] was 24.9 µM and the TGI [8] was 11.1 µM and 14 µM. The TGI [9] was 12.6 µM and 12.9 µM, the TGI [10] was 35.2 µM and 33.6 µM and the GI50 [60] was 88 µM and 19.4 µM. For the same compound, the TGI [60] was > 100 µM and 99 µM, the TGI [11] was 66.9 µM and 63.5 µM and the GI50 [12] was 5.47 µM. The TGI [12] was 21.3 µM and 32 µM, the TGI [13] was 2640 nM and 2760 nM and the TGI [14] was 11 µM and 10.1 µM. The TGI [15] was 62.7 µM and 71.6 µM, the TGI [16] was 78.1 µM and 75.3 µM and the TGI [17] was 43.1 µM and 40.2 µM. The TGI [18] was 12.1 µM, the GI50 [19] was 4.95 µM and 2.34 µM and the TGI [19] was 33.4 µM and 19.9 µM. The TGI [20] was 48.3 µM and 27.4 µM, the TGI [22] was over 100 µM and the TGI [23] was 3.34 µM and 2.32 µM. For the same compound, the TGI [24] was 3.24 µM and 4.03 µM, the TGI [61] was 21.9 µM and 39.5 µM and the TGI [62] was over 100 µM. For the same compound, the TGI [63] was 19.6 µM, the TGI [25] was 56.6 µM and 30.2 µM and the TGI [26] was 1700 nM and 1610 nM. The TGI [27] was 4.8 µM and 6.39 µM, the TGI [28] was 12.3 µM and 11.8 µM and the TGI [29] was 3.6 µM and 3.45 µM. The GI50 [64] was 48 µM and 15 µM, the TGI [64] was over 100 µM and the TGI [30] was 19.7 µM and 21.3 µM. For the same compound, the TGI [31] was 15 µM and 10.9 µM, the TGI [32] was 56.6 µM and 61.1 µM and the TGI [33] was 27.4 µM and 18.1 µM. For the same compound, the TGI [65] was 24.5 µM and 22.2 µM, the TGI [66] was over 77.4 µM and the TGI [67] was over 100 µM. The TGI [34] was 88.7 µM and 92 µM, the TGI [35] was 62 µM and 36.7 µM and the TGI [37] was 1870 nM and 1880 nM. The TGI [38] was 1710 nM and 2080 nM, the TGI [39] was 2850 nM and 2930 nM and the TGI [40] was 2.85 µM and 3.5 µM. For the same compound, the TGI [41] was 4.83 µM and 7.1 µM, the TGI [42] was 5.92 µM and 4.85 µM and the TGI [43] was 64.7 µM and 64.2 µM. The TGI [44] was 1290 nM and 1200 nM, the TGI [68] was 4.3 µM and 4.19 µM and the TGI [45] was 1090 nM and 1300 nM. The TGI [69] was 755 nM and 779 nM, the TGI [47] was over 100 µM and the TGI [48] was 54.6 µM and 47.5 µM. The TGI [70] was 832 nM, the TGI [49] was over 100 µM and the TGI [50] was 1940 nM and 2740 nM. For the same compound, the TGI [51] was 37.5 µM and 43.2 µM, the TGI [52] was 22.5 µM and 27.4 µM and the TGI [53] was > 93.4 µM and 68.7 µM. The GI50 [54] was 856 nM and the TGI [54] was 5.09 µM and 2.45 µM.

In the case of `CCCN(CCCCC(NC(C)=O)C(=O)NCc1ccccc1)C(=O)NC` (stereo unspecified), the TGI [1] is reported as over 100 µM, the TGI [55] is reported as over 100 µM and the TGI [2] is reported as over 100 µM. It also gave a TGI [3] of over 100 µM, a TGI [4] of over 100 µM and a TGI [5] of over 100 µM. The TGI [57] was over 100 µM, the TGI [6] was over 100 µM and the TGI [7] was over 100000 nM. For the same compound, the TGI [58] was over 100 µM, the TGI [8] was over 100 µM and the TGI [9] was over 100 µM. The TGI [10] was over 100 µM, the TGI [60] was over 100 µM and the TGI [13] was over 100000 nM. The TGI [14] was over 100 µM, the TGI [15] was over 100 µM and the TGI [16] was over 100 µM. It also gave a TGI [17] of over 100 µM, a TGI [18] of over 100 µM and a TGI [19] of over 100 µM. For the same compound, the TGI [20] was over 100 µM, the TGI [21] was over 100 µM and the TGI [22] was over 100 µM. It also gave a TGI [23] of over 100 µM, a TGI [24] of over 100 µM and a TGI [25] of over 100 µM. It also gave a TGI [26] of over 100000 nM, a TGI [27] of over 100 µM and a TGI [28] of over 100 µM. The TGI [29] was over 100 µM, the TGI [30] was over 100 µM and the TGI [31] was over 100 µM. The TGI [32] was over 100 µM, the TGI [33] was over 100 µM and the TGI [34] was over 100 µM. It also gave a TGI [35] of over 100 µM, a TGI [36] of over 100 µM and a TGI [37] of over 100000 nM. The TGI [38] was over 100000 nM, the TGI [39] was over 100000 nM and the TGI [40] was over 100 µM. For the same compound, the TGI [41] was over 100 µM, the TGI [42] was over 100 µM and the TGI [43] was over 100 µM. It also gave a TGI [44] of over 100000 nM, a TGI [45] of over 100000 nM and a TGI [69] of over 100000 nM. The TGI [46] was over 100 µM, the TGI [48] was over 100 µM and the TGI [49] was over 100 µM. It also gave a TGI [50] of over 100000 nM, a TGI [51] of over 100 µM and a TGI [52] of over 100 µM. The TGI [53] was over 100 µM and the TGI [54] was over 100 µM.
